Reference: ChEMBL document CHEMBL2150993, “Substituted thiazoles VII. Synthesis and antitumor activity of certain 2-(substituted amino)-4-phenyl-1,3-thiazole analogs” (2012)

What was measured:
Format in all cases: functional
Conditions in all cases: at 10 µM
[1] = tested on: IGROV-1; assay: Growth inhibition of human IGROV1 cells after 48 hrs by cell counting analysis
[2] = tested on: SF-539; assay: Growth inhibition of human SF539 cells after 48 hrs by cell counting analysis
[3] = tested on: TK-10; assay: Growth inhibition of human TK10 cells after 48 hrs by cell counting analysis
[4] = tested on: SN12C; assay: Growth inhibition of human SN12C cells after 48 hrs by cell counting analysis
[5] = tested on: SK-MEL-2; assay: Growth inhibition of human SK-MEL-2 cells after 48 hrs by cell counting analysis
[6] = tested on: NCI-H226; assay: Growth inhibition of human NCI-H226 cells after 48 hrs by cell counting analysis
[7] = tested on: LOX IMVI; assay: Growth inhibition of human LOXIMVI cells after 48 hrs by cell counting analysis
[8] = tested on: HCT-116; assay: Growth inhibition of human HCT116 cells after 48 hrs by cell counting analysis
[9] = tested on: EKVX; assay: Growth inhibition of human EKVX cells after 48 hrs by cell counting analysis
[10] = tested on: HOP-62; assay: Growth inhibition of human HOP62 cells after 48 hrs by cell counting analysis
[11] = tested on: RPMI-8226; assay: Growth inhibition of human RPMI8226 cells after 48 hrs by cell counting analysis
[12] = tested on: HCC 2998; assay: Growth inhibition of human HCC2998 cells after 48 hrs by cell counting analysis
[13] = tested on: SK-MEL-5; assay: Growth inhibition of human SK-MEL-5 cells after 48 hrs by cell counting analysis
[14] = tested on: T47D; assay: Growth inhibition of human T47D cells after 48 hrs by cell counting analysis
[15] = tested on: SK-MEL-28; assay: Growth inhibition of human SK-MEL-28 cells after 48 hrs by cell counting analysis
[16] = tested on: SF-268; assay: Growth inhibition of human SF268 cells after 48 hrs by cell counting analysis
[17] = tested on: HCT-15; assay: Growth inhibition of human HCT15 cells after 48 hrs by cell counting analysis
[18] = tested on: OVCAR-4; assay: Growth inhibition of human OVCAR4 cells after 48 hrs by cell counting analysis
[19] = tested on: MDA-MB-435; assay: Growth inhibition of human MDA-MB-435 cells after 48 hrs by cell counting analysis
[20] = tested on: A549; assay: Growth inhibition of human A549 cells after 48 hrs by cell counting analysis
[21] = tested on: U-251; assay: Growth inhibition of human U251 cells after 48 hrs by cell counting analysis
[22] = tested on: SNB-19; assay: Growth inhibition of human SNB19 cells after 48 hrs by cell counting analysis
[23] = tested on: Malme-3M; assay: Growth inhibition of human MALME-3M cells after 48 hrs by cell counting analysis
[24] = Growth inhibition of human NCI-ADR-RES cells after 48 hrs by cell counting analysis
[25] = tested on: MOLT-4; assay: Growth inhibition of human MOLT4 cells after 48 hrs by cell counting analysis
[26] = tested on: CAKI-1; assay: Growth inhibition of human Caki1 cells after 48 hrs by cell counting analysis
[27] = tested on: SNB-75; assay: Growth inhibition of human SNB75 cells after 48 hrs by cell counting analysis
[28] = tested on: SF-295; assay: Growth inhibition of human SF295 cells after 48 hrs by cell counting analysis
[29] = tested on: MDA-MB-231; assay: Growth inhibition of human MDA-MB-231 cells after 48 hrs by cell counting analysis
[30] = tested on: SW-620; assay: Growth inhibition of human SW620 cells after 48 hrs by cell counting analysis
[31] = tested on: UACC-257; assay: Growth inhibition of human UACC257 cells after 48 hrs by cell counting analysis
[32] = tested on: HL-60; assay: Growth inhibition of human HL60 cells after 48 hrs by cell counting analysis
[33] = tested on: OVCAR-8; assay: Growth inhibition of human OVCAR8 cells after 48 hrs by cell counting analysis
[34] = tested on: RXF 393; assay: Growth inhibition of human RXF393 cells after 48 hrs by cell counting analysis
[35] = tested on: ACHN; assay: Growth inhibition of human ACHN cells after 48 hrs by cell counting analysis
[36] = tested on: PC-3; assay: Growth inhibition of human PC3 cells after 48 hrs by cell counting analysis
[37] = tested on: HOP-92; assay: Growth inhibition of human HOP92 cells after 48 hrs by cell counting analysis
[38] = Growth inhibition of human NCI-322M cells after 48 hrs by cell counting analysis
[39] = tested on: HT-29; assay: Growth inhibition of human HT-29 cells after 48 hrs by cell counting analysis
[40] = tested on: BT-549; assay: Growth inhibition of human BT549 cells after 48 hrs by cell counting analysis
[41] = tested on: SR; assay: Growth inhibition of human SR cells after 48 hrs by cell counting analysis
[42] = tested on: OVCAR-5; assay: Growth inhibition of human OVCAR5 cells after 48 hrs by cell counting analysis
[43] = tested on: SK-OV-3; assay: Growth inhibition of human SKOV3 cells after 48 hrs by cell counting analysis
[44] = tested on: MCF7; assay: Growth inhibition of human MCF7 cells after 48 hrs by cell counting analysis
[45] = tested on: UACC-62; assay: Growth inhibition of human UACC62 cells after 48 hrs by cell counting analysis
[46] = tested on: CCRF-CEM; assay: Growth inhibition of human CCRF-CEM cells after 48 hrs by cell counting analysis
[47] = tested on: MDA-MB-468; assay: Growth inhibition of human MDA-MB-468 cells after 48 hrs by cell counting analysis
[48] = tested on: M14; assay: Growth inhibition of human M14 cells after 48 hrs by cell counting analysis
[49] = tested on: KM12; assay: Growth inhibition of human KM12 cells after 48 hrs by cell counting analysis
[50] = tested on: NCI-H522; assay: Growth inhibition of human NCI-H522 cells after 48 hrs by cell counting analysis
[51] = tested on: UO-31; assay: Growth inhibition of human UO31 cells after 48 hrs by cell counting analysis
[52] = tested on: OVCAR-3; assay: Growth inhibition of human OVCAR3 cells after 48 hrs by cell counting analysis
[53] = tested on: K562; assay: Growth inhibition of human K562 cells after 48 hrs by cell counting analysis
[54] = tested on: NCI-H23; assay: Growth inhibition of human NCI-H23 cells after 48 hrs by cell counting analysis

## O=C(CCN1CCN(c2ccccc2)CC1)Nc1nc(-c2ccc(Cl)cc2)cs1
[1]
  growth inhibition (GI): <10%
[2]
  growth inhibition (GI): <10%
[3]
  growth inhibition (GI): <10%
[4]
  growth inhibition (GI): 11.9%
[5]
  growth inhibition (GI): <10%
[6]
  growth inhibition (GI): 14.1%
[7]
  growth inhibition (GI): <10%
[8]
  growth inhibition (GI): 19.4%
[9]
  growth inhibition (GI): <10%
[10]
  growth inhibition (GI): <10%
[11]
  growth inhibition (GI): 25.4%
[12]
  growth inhibition (GI): <10%
[13]
  growth inhibition (GI): 10.1%
[14]
  growth inhibition (GI): <10%
[15]
  growth inhibition (GI): <10%
[16]
  growth inhibition (GI): <10%
[17]
  growth inhibition (GI): <10%
[18]
  growth inhibition (GI): <10%
[19]
  growth inhibition (GI): <10%
[20]
  growth inhibition (GI): 12%
[21]
  growth inhibition (GI): <10%
[22]
  growth inhibition (GI): <10%
[23]
  growth inhibition (GI): <10%
[24]
  growth inhibition (GI): <10%
[25]
  growth inhibition (GI): 36.3%
[26]
  growth inhibition (GI): <10%
[27]
  growth inhibition (GI): 14.9%
[28]
  growth inhibition (GI): 24.2%
[29]
  growth inhibition (GI): <10%
[30]
  growth inhibition (GI): <10%
[31]
  growth inhibition (GI): <10%
[32]
  growth inhibition (GI): 19.6%
[33]
  growth inhibition (GI): <10%
[34]
  growth inhibition (GI): <10%
[35]
  growth inhibition (GI): <10%
[36]
  growth inhibition (GI): 12%
[37]
  growth inhibition (GI): 23.7%
[38]
  growth inhibition (GI): 27.8%
[39]
  growth inhibition (GI): 18.6%
[40]
  growth inhibition (GI): <10%
[41]
  growth inhibition (GI): <10%
[42]
  growth inhibition (GI): <10%
[43]
  growth inhibition (GI): <10%
[44]
  growth inhibition (GI): 10.9%
[45]
  growth inhibition (GI): 20.5%
[46]
  growth inhibition (GI): 16.3%
[47]
  growth inhibition (GI): <10%
[48]
  growth inhibition (GI): <10%
[49]
  growth inhibition (GI): <10%
[50]
  growth inhibition (GI): 18.7%
[51]
  growth inhibition (GI): 38.6%
[52]
  growth inhibition (GI): <10%
[53]
  growth inhibition (GI): 21.6%
[54]
  growth inhibition (GI): 13.7%

## Cn1cc(NC(=O)c2cc(NC(=O)CNC(=N)N)cn2C)cc1C(=O)NCCC(=N)N [NETROPSIN]
[1]
  growth inhibition (GI): 17.4%
[2]
  growth inhibition (GI): <10%
[3]
  growth inhibition (GI): <10%
[4]
  growth inhibition (GI): <10%
[5]
  growth inhibition (GI): <10%
[6]
  growth inhibition (GI): 14.5%
[7]
  growth inhibition (GI): <10%
[8]
  growth inhibition (GI): 10.7%
[9]
  growth inhibition (GI): 19.5%
[10]
  growth inhibition (GI): 10.9%
[11]
  growth inhibition (GI): 28.9%
[12]
  growth inhibition (GI): <10%
[13]
  growth inhibition (GI): 23.7%
[14]
  growth inhibition (GI): 25.2%
[15]
  growth inhibition (GI): <10%
[16]
  growth inhibition (GI): <10%
[17]
  growth inhibition (GI): <10%
[18]
  growth inhibition (GI): <10%
[19]
  growth inhibition (GI): <10%
[20]
  growth inhibition (GI): 10.3%
[21]
  growth inhibition (GI): <10%
[22]
  growth inhibition (GI): 10.5%
[23]
  growth inhibition (GI): 12.4%
[24]
  growth inhibition (GI): 17%
[25]
  growth inhibition (GI): 33.2%
[26]
  growth inhibition (GI): 28.9%
[27]
  growth inhibition (GI): 29.8%
[28]
  growth inhibition (GI): 14.4%
[29]
  growth inhibition (GI): 23.4%
[30]
  growth inhibition (GI): <10%
[31]
  growth inhibition (GI): <10%
[32]
  growth inhibition (GI): 12.6%
[33]
  growth inhibition (GI): <10%
[34]
  growth inhibition (GI): <10%
[35]
  growth inhibition (GI): <10%
[36]
  growth inhibition (GI): 17.8%
[37]
  growth inhibition (GI): <10%
[38]
  growth inhibition (GI): 11.1%
[39]
  growth inhibition (GI): 10.8%
[40]
  growth inhibition (GI): 12.9%
[41]
  growth inhibition (GI): <10%
[42]
  growth inhibition (GI): <10%
[43]
  growth inhibition (GI): <10%
[44]
  growth inhibition (GI): 13.7%
[45]
  growth inhibition (GI): 29%
[46]
  growth inhibition (GI): 15.3%
[47]
  growth inhibition (GI): 25.7%
[48]
  growth inhibition (GI): <10%
[49]
  growth inhibition (GI): <10%
[50]
  growth inhibition (GI): 28.2%
[51]
  growth inhibition (GI): 30.6%
[52]
  growth inhibition (GI): <10%
[53]
  growth inhibition (GI): 25.1%
[54]
  growth inhibition (GI): 13.9%

## O=C(CN1CCN(c2ccccc2)CC1)Nc1nc(-c2ccc(Cl)cc2)cs1
[1]
  growth inhibition (GI): 10.4%
[2]
  growth inhibition (GI): <10%
[3]
  growth inhibition (GI): <10%
[4]
  growth inhibition (GI): <10%
[5]
  growth inhibition (GI): <10%
[6]
  growth inhibition (GI): <10%
[7]
  growth inhibition (GI): <10%
[8]
  growth inhibition (GI): 16.4%
[9]
  growth inhibition (GI): <10%
[10]
  growth inhibition (GI): 12.7%
[11]
  growth inhibition (GI): <10%
[12]
  growth inhibition (GI): <10%
[13]
  growth inhibition (GI): 11.7%
[14]
  growth inhibition (GI): 19%
[15]
  growth inhibition (GI): <10%
[16]
  growth inhibition (GI): <10%
[17]
  growth inhibition (GI): <10%
[18]
  growth inhibition (GI): <10%
[19]
  growth inhibition (GI): <10%
[20]
  growth inhibition (GI): <10%
[21]
  growth inhibition (GI): <10%
[22]
  growth inhibition (GI): <10%
[23]
  growth inhibition (GI): <10%
[24]
  growth inhibition (GI): <10%
[25]
  growth inhibition (GI): <10%
[26]
  growth inhibition (GI): <10%
[27]
  growth inhibition (GI): <10%
[28]
  growth inhibition (GI): <10%
[29]
  growth inhibition (GI): <10%
[30]
  growth inhibition (GI): <10%
[31]
  growth inhibition (GI): <10%
[32]
  growth inhibition (GI): <10%
[33]
  growth inhibition (GI): <10%
[34]
  growth inhibition (GI): <10%
[35]
  growth inhibition (GI): <10%
[36]
  growth inhibition (GI): 21.1%
[37]
  growth inhibition (GI): 60.2%
[38]
  growth inhibition (GI): <10%
[39]
  growth inhibition (GI): <10%
[40]
  growth inhibition (GI): <10%
[41]
  growth inhibition (GI): <10%
[42]
  growth inhibition (GI): <10%
[43]
  growth inhibition (GI): <10%
[44]
  growth inhibition (GI): <10%
[45]
  growth inhibition (GI): 20.3%
[46]
  growth inhibition (GI): <10%
[47]
  growth inhibition (GI): <10%
[48]
  growth inhibition (GI): <10%
[49]
  growth inhibition (GI): <10%
[50]
  growth inhibition (GI): <10%
[51]
  growth inhibition (GI): 34.4%
[52]
  growth inhibition (GI): <10%
[53]
  growth inhibition (GI): <10%
[54]
  growth inhibition (GI): <10%
